Measurements published in US20260256792A1, “TREATMENT OF CHRONIC SPONTANEOUS URTICARIA BY ADMINISTERING (R)-2-[3-[4-AMINO-3-(2-FLUORO-4-PHENOXY-PHENYL)PYRAZOLO[3,4-D]PYRIMIDIN-1-YL]PIPERIDINE-1-CARBONYL]-4-METHYL-4-[4-(OXETAN-3-YL)PIPERAZIN-1-YL]PENT-2-ENENITRILE” (priority 2023, published 2026).

Test system: moderate-to-severe chronic spontaneous urticaria (CSU)
Assay: Phase 2 CSU study: urticaria activity score over 7 days (UAS7)
Type: in vivo, human
Set-up: key to UAS7 Median / UAS7 Change from baseline Median / UAS7 change from baseline, Q1 / UAS7 change from baseline, Q3 / UAS7 change from baseline, Max / UAS7 Change from baseline LS Mean (SE): UAS7 points; daily UAS score ranges 0–6 points/day, over 7 days
Text: The study comprises a 12 week, randomized, double-blind, placebo-controlled, multi-center, dose-ranging efficacy and safety phase, followed by a 40 week open label extension (OLE) phase (see FIG. 1). The study consists of three phases and an optional OLE phase. […] Clinically, CSU is characterized by the spontaneous and recurrent appearance of pruritic hives. The proposed primary endpoints were the UAS7 at Week 12 in EU and EU reference countries and the ISS7 in the US. Regardless of where a participant was from, all assessments were the same. The UAS7 score is a composite score containing both the HSS7 and the ISS7. This allowed a global assessment of the two key components of urticaria: hives and itch. […] The UAS is a validated PRO measure. […] The daily UAS scores range from 0 to 6 point/day. […] Patients were to complete the UAS using the e-diary. […] The following secondary endpoints were to be analyzed using the same approach as for the primary endpoint: • Change from baseline in UAS7 at Week 4 • Change from baseline in UAS7 at Week 12 (for US and US reference countries) • Change from baseline in ISS7 at Week 12 (except US and US reference countries) • Change from baseline in HSS7 at Week 12 The following responder secondary endpoints were to be analyzed using the Cochran-Mantel-Haenszel test adjusted by region: • Proportion of participants with UAS7<6 at Week 12 • Proportion of participants with UAS7=0 at Week 12 Participants who received selected prohibited medications and/or rescue medications were to be considered as non-responders for time points after the medication usage. For other participants, all available data including those collected during the off-treatment period were to be used to determine the responder/non-responder status. Missing data were to be considered as non-responders.

[1] = Week 6, 400 mg BID, ITT population
[2] = Week 6, 400 mg BID, Omalizumab-Naïve
[3] = Week 6, 400 mg BID, Prior Omalizumab Use
[4] = Week 6, 400 mg BID, omalizumab-naive participants
[5] = Week 6, 400 mg QPM, ITT population
[6] = Week 6, 400 mg QPM, Omalizumab-Naïve
[7] = Week 6, 400 mg QPM, Prior Omalizumab Use
[8] = Week 6, 400 mg QPM, omalizumab-naive participants
[9] = Week 6, 400 mg TID, ITT population
[10] = Week 6, 400 mg TID, Omalizumab-Naïve
[11] = Week 6, 400 mg TID, Prior Omalizumab Use
[12] = Week 6, 400 mg TID, omalizumab-naive participants
[13] = Week 7, 400 mg BID, ITT population
[14] = Week 7, 400 mg BID, Omalizumab-Naïve

SMILES: CC(C)(C=C(C#N)C(=O)N1CCC[C@@H](n2nc(-c3ccc(Oc4ccccc4)cc3F)c3c(N)ncnc32)C1)N1CCN(C2COC2)CC1 [rilzabrutinib, (R)-2-[3-[4-amino-3-(2-fluoro-4-phenoxy-phenyl)pyrazolo[3,4-d]pyrimidin-1-yl]piperidine-1-carbonyl]-4-methyl-4-[4-(oxetan-3-yl)piperazin-1-yl]pent-2-enenitrile]
- OR for rilzabrutinib vs. placebo, UAS7 reduction of 10 points or more [1]: 1.222
- RRD (%) for rilzabrutinib vs. placebo, UAS7 reduction of 10 points or more [1]: 4.9 %
- Responder, UAS7 reduction from baseline of 10 points or more [1]: 21 (51.2) n (%)
- UAS7 Change from baseline Mean (SD) [2]: −12.76 (11.42)
- UAS7 Mean (SD) [2]: 17.02 (12.76)
- UAS7 Median [2]: 16.50
- UAS7 Percent change from baseline Mean (SD) [2]: −43.89 (39.18) %
- UAS7 Percent change from baseline Median [2]: −38.06%
- UAS7 Change from baseline Mean (SD) [3]: −18.97 (18.81)
- UAS7 Change from baseline Median [3]: −26.00
- UAS7 Mean (SD) [3]: 13.03 (15.45)
- UAS7 Median [3]: 5.83
- UAS7 Percent change from baseline Mean (SD) [3]: −54.26 (54.98) %
- UAS7 Percent change from baseline Median [3]: −86.11%
- Non-responder, UAS7 reduction from baseline of 10 points or more [4]: 17 (48.6) n (%)
- OR for rilzabrutinib vs. placebo, UAS7 reduction of 10 points or more [4]: 1.486
- RRD (%) for rilzabrutinib vs. placebo, UAS7 reduction of 10 points or more [4]: 9.8 %
- Responder, UAS7 reduction from baseline of 10 points or more [4]: 18 (51.4) n (%)
- Non-responder, UAS7 reduction from baseline of 10 points or more [5]: 22 (57.9) n (%)
- OR for rilzabrutinib vs. placebo, UAS7 reduction of 10 points or more [5]: 0.959
- RRD (%) for rilzabrutinib vs. placebo, UAS7 reduction of 10 points or more [5]: −1.0 %
- Responder, UAS7 reduction from baseline of 10 points or more [5]: 16 (42.1) n (%)
- UAS7 Change from baseline Mean (SD) [6]: −11.79 (10.56)
- UAS7 Change from baseline Median [6]: −9.00
- UAS7 Mean (SD) [6]: 20.21 (10.42)
- UAS7 Median [6]: 18.25
- UAS7 Percent change from baseline Mean (SD) [6]: −35.97 (30.17) %
- UAS7 Percent change from baseline Median [6]: −37.30%
- UAS7 Change from baseline Mean (SD) [7]: −24.00 (NC)
- UAS7 Change from baseline Median [7]: −24.00
- UAS7 Mean (SD) [7]: 17.00 (NC)
- UAS7 Median [7]: 17.00
- UAS7 Percent change from baseline Mean (SD) [7]: −58.54 (NC) %
- UAS7 Percent change from baseline Median [7]: −58.54%
- Non-responder, UAS7 reduction from baseline of 10 points or more [8]: 22 (59.5) n (%)
- OR for rilzabrutinib vs. placebo, UAS7 reduction of 10 points or more [8]: 0.981
- RRD (%) for rilzabrutinib vs. placebo, UAS7 reduction of 10 points or more [8]: −0.5 %
- Responder, UAS7 reduction from baseline of 10 points or more [8]: 15 (40.5) n (%)
- Non-responder, UAS7 reduction from baseline of 10 points or more [9]: 16 (39.0) n (%)
- OR for rilzabrutinib vs. placebo, UAS7 reduction of 10 points or more [9]: 1.787
- RRD (%) for rilzabrutinib vs. placebo, UAS7 reduction of 10 points or more [9]: 14.2 %
- Responder, UAS7 reduction from baseline of 10 points or more [9]: 25 (61.0) n (%)
- UAS7 Change from baseline Mean (SD) [10]: −15.94 (12.03)
- UAS7 Change from baseline Median [10]: −15.00
- UAS7 Mean (SD) [10]: 14.10 (11.23)
- UAS7 Median [10]: 14.00
- UAS7 Percent change from baseline Mean (SD) [10]: −52.07 (35.76) %
- UAS7 Percent change from baseline Median [10]: −47.83%
- UAS7 Change from baseline Mean (SD) [11]: −26.03 (14.05)
- UAS7 Change from baseline Median [11]: −26.58
- UAS7 Median [11]: 3.00
- UAS7 Percent change from baseline Mean (SD) [11]: −78.40 (28.08) %
- UAS7 Percent change from baseline Median [11]: −89.66%
- Non-responder, UAS7 reduction from baseline of 10 points or more [12]: 15 (42.9) n (%)
- OR for rilzabrutinib vs. placebo, UAS7 reduction of 10 points or more [12]: 1.770
- RRD (%) for rilzabrutinib vs. placebo, UAS7 reduction of 10 points or more [12]: 14.6 %
- Responder, UAS7 reduction from baseline of 10 points or more [12]: 20 (57.1) n (%)
- Non-responder, UAS7 reduction from baseline of 10 points or more [13]: 18 (43.9) n (%)
- OR for rilzabrutinib vs. placebo, UAS7 reduction of 10 points or more [13]: 1.899
- RRD (%) for rilzabrutinib vs. placebo, UAS7 reduction of 10 points or more [13]: 15.6 %
- Responder, UAS7 reduction from baseline of 10 points or more [13]: 23 (56.1) n (%)
- UAS7 Change from baseline Mean (SD) [14]: −14.03 (11.20)
- UAS7 Change from baseline Median [14]: −12.75
- UAS7 Mean (SD) [14]: 15.55 (11.97)
- UAS7 Median [14]: 14.88
- UAS7 Percent change from baseline Mean (SD) [14]: −48.14 (36.14) %
